Results reported in publication PMC7806782, “Tethering-induced destabilization and ATP-binding for tandem RRM domains of ALS-causing TDP-43 and hnRNPA1” (Scientific Reports, 2021).

Tests used:
Assay in all cases: 1H-15N HSQC NMR titration, one-site fit of chemical shift differences
Format in all cases: binding
[1] = target: T1, isolated TDP-43 RRM2 (191–269) (Homo sapiens, UniProt Q13148)
T1 construct: gene TARDBP
Source text: 1H-15N HSQC NMR titration, one-site fit of chemical shift differences on isolated TDP-43 RRM2 (191–269) | isolated RRM2 is also able to bind ATP to induce large shifts

[2] = target: T2, tethered hnRNPA1 RRM1–RRM2 (5–184) (Homo sapiens, UniProt P09651)
T2 construct: ATP site in RRM2

[3] = target: T3, isolated hnRNPA1 RRM2 (94–184) (Homo sapiens, UniProt P09651)
T3 construct: printed as 90-residue
T3 sequence (P09651 94-184): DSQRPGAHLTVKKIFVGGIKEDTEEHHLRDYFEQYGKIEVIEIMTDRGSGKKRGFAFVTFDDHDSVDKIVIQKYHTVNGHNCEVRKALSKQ

T1 sequence (Q13148 191-269): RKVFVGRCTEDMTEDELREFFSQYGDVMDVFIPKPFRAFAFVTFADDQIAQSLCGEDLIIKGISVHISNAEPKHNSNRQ
T2 sequence (P09651 5-184): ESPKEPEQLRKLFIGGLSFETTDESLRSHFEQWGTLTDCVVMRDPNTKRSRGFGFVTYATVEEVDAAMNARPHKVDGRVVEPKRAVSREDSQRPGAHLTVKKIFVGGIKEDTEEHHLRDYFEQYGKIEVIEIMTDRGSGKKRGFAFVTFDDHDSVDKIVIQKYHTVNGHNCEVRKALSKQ

Structure (SMILES): Nc1ncnc2c1ncn2[C@@H]1O[C@H](COP(=O)(O)OP(=O)(O)OP(=O)(O)O)[C@@H](O)[C@H]1O [ATP]
- Kd [1]: 16.7 ± 0.9 mM
- Kd [2]: 4.9 mM
- Kd [3]: 7.7 mM
